# Measurements: ChEMBL document CHEMBL3885881, “DrugMatrix”
# Species: Rattus norvegicus
# Test: DrugMatrix - Regimen: Daily Repeat
# Assay type: toxicity, organism-based, Sprague-Dawley
# Set-up: regimen Daily Repeat, gender Male, age 6-8 weeks
# Details: in vivo, po, 46 mg/kg, route oral GAVAGE, dose level Low, vehicle 100 % WATER; for ABSOLUTE BASOPHIL / ABSOLUTE EOSINOPHIL / ABSOLUTE LYMPHOCYTE / ABSOLUTE MONOCYTE / ABSOLUTE SEGMENTED NEUTROPHIL / BASOPHIL / EOSINOPHIL / ERYTHROCYTE COUNT / HEMATOCRIT / HEMOGLOBIN / LEUKOCYTE COUNT / LYMPHOCYTE / MEAN CORPUSCULAR HEMOGLOBIN / MEAN CORPUSCULAR HEMOGLOBIN CONCENTRATION / MEAN CORPUSCULAR VOLUME / MONOCYTE / NEUTROPHIL / NUCLEATED RED BLOOD CELLS / PLATELET COUNT: tissue Blood; for ALANINE AMINOTRANSFERASE / ALKALINE PHOSPHATASE / ASPARTATE AMINOTRANSFERASE / BLOOD UREA NITROGEN / CARBON DIOXIDE / CHLORIDE / CHOLESTEROL / CREATINE PHOSPHOKINASE / CREATININE / GLUCOSE / LACTATE DEHYDROGENASE / LIPASE / PHOSPHORUS / POTASSIUM / SODIUM / TOTAL BILIRUBIN / TOTAL PROTEIN / URIC ACID: tissue Plasma
compound,measurement,setting,value
O=C1NC(=O)C(c2ccccc2)(c2ccccc2)N1 [PHENYTOIN],ABSOLUTE BASOPHIL,"72 h, time 3 day",0 CELLS/uL
same,ABSOLUTE EOSINOPHIL,"72 h, time 3 day",0 CELLS/uL
same,ABSOLUTE LYMPHOCYTE,"72 h, time 3 day",15884.67 CELLS/uL
same,ABSOLUTE MONOCYTE,"72 h, time 3 day",0 CELLS/uL
same,ABSOLUTE SEGMENTED NEUTROPHIL,"72 h, time 3 day",1248.67 CELLS/uL
same,BASOPHIL,"72 h, time 3 day",0%
same,EOSINOPHIL,"72 h, time 3 day",0%
same,ERYTHROCYTE COUNT,"72 h, time 3 day",5.58 x10E6/uL
same,HEMATOCRIT,"72 h, time 3 day",35.6%
same,HEMOGLOBIN,"72 h, time 3 day",14.27 G/DL
same,LEUKOCYTE COUNT,"72 h, time 3 day",17.13 x10E3/uL
same,LYMPHOCYTE,"72 h, time 3 day",93%
same,MEAN CORPUSCULAR HEMOGLOBIN,"72 h, time 3 day",25.63 pg
same,MEAN CORPUSCULAR HEMOGLOBIN CONCENTRATION,"72 h, time 3 day",40.1 G/DL
same,MEAN CORPUSCULAR VOLUME,"72 h, time 3 day",63.9 fL
same,MONOCYTE,"72 h, time 3 day",0%
same,NEUTROPHIL,"72 h, time 3 day",7%
same,NUCLEATED RED BLOOD CELLS,"72 h, time 3 day",0 /100WBC
same,PLATELET COUNT,"72 h, time 3 day",1336.33 x10E3/uL
same,ALANINE AMINOTRANSFERASE,"72 h, time 3 day",48.67 u/L
same,ALKALINE PHOSPHATASE,"72 h, time 3 day",344.67 u/L
same,ASPARTATE AMINOTRANSFERASE,"72 h, time 3 day",69.33 u/L
same,BLOOD UREA NITROGEN,"72 h, time 3 day",13.67 mg/dL
same,CARBON DIOXIDE,"72 h, time 3 day",33.67 mmol/L
same,CHLORIDE,"72 h, time 3 day",99.67 MEQ/L
same,CHOLESTEROL,"72 h, time 3 day",68.67 mg/dL
same,CREATINE PHOSPHOKINASE,"72 h, time 3 day",151.67 u/L
same,CREATININE,"72 h, time 3 day",0.12 mg/dL
same,GLUCOSE,"72 h, time 3 day",146 mg/dL
same,LACTATE DEHYDROGENASE,"72 h, time 3 day",81.33 u/L
same,LIPASE,"72 h, time 3 day",10 u/L
same,PHOSPHORUS,"72 h, time 3 day",11.37 mg/dL
same,POTASSIUM,"72 h, time 3 day",6.96 MEQ/L
same,SODIUM,"72 h, time 3 day",142.8 MEQ/L
same,TOTAL BILIRUBIN,"72 h, time 3 day",0.2 mg/dL
same,TOTAL PROTEIN,"72 h, time 3 day",5.7 G/DL
same,URIC ACID,"72 h, time 3 day",1.53 mg/dL
same,ABSOLUTE BASOPHIL,"120 h, time 5 day",0 CELLS/uL
same,ABSOLUTE EOSINOPHIL,"120 h, time 5 day",40.67 CELLS/uL
same,ABSOLUTE LYMPHOCYTE,"120 h, time 5 day",11032 CELLS/uL
same,ABSOLUTE MONOCYTE,"120 h, time 5 day",233.67 CELLS/uL
same,ABSOLUTE SEGMENTED NEUTROPHIL,"120 h, time 5 day",793.67 CELLS/uL
same,BASOPHIL,"120 h, time 5 day",0%
same,EOSINOPHIL,"120 h, time 5 day",0.33%
same,ERYTHROCYTE COUNT,"120 h, time 5 day",5.47 x10E6/uL
same,HEMATOCRIT,"120 h, time 5 day",33.93%
same,HEMOGLOBIN,"120 h, time 5 day",13.63 G/DL
same,LEUKOCYTE COUNT,"120 h, time 5 day",12.1 x10E3/uL
same,LYMPHOCYTE,"120 h, time 5 day",91.33%
same,MEAN CORPUSCULAR HEMOGLOBIN,"120 h, time 5 day",24.93 pg
same,MEAN CORPUSCULAR HEMOGLOBIN CONCENTRATION,"120 h, time 5 day",40.17 G/DL
same,MEAN CORPUSCULAR VOLUME,"120 h, time 5 day",62 fL
same,MONOCYTE,"120 h, time 5 day",2%
same,NEUTROPHIL,"120 h, time 5 day",6.33%
same,NUCLEATED RED BLOOD CELLS,"120 h, time 5 day",0 /100WBC
same,PLATELET COUNT,"120 h, time 5 day",1416.33 x10E3/uL
same,ALANINE AMINOTRANSFERASE,"120 h, time 5 day",54 u/L
same,ALKALINE PHOSPHATASE,"120 h, time 5 day",319.67 u/L
same,ASPARTATE AMINOTRANSFERASE,"120 h, time 5 day",264.33 u/L
same,BLOOD UREA NITROGEN,"120 h, time 5 day",17 mg/dL
same,CARBON DIOXIDE,"120 h, time 5 day",24.67 mmol/L
same,CHLORIDE,"120 h, time 5 day",104.33 MEQ/L
same,CHOLESTEROL,"120 h, time 5 day",61.67 mg/dL
same,CREATINE PHOSPHOKINASE,"120 h, time 5 day",2442.67 u/L
same,CREATININE,"120 h, time 5 day",0.27 mg/dL
same,GLUCOSE,"120 h, time 5 day",152 mg/dL
same,LACTATE DEHYDROGENASE,"120 h, time 5 day",827.67 u/L
same,LIPASE,"120 h, time 5 day",10.67 u/L
same,PHOSPHORUS,"120 h, time 5 day",13.43 mg/dL
same,POTASSIUM,"120 h, time 5 day",7.35 MEQ/L
same,SODIUM,"120 h, time 5 day",144.9 MEQ/L
same,TOTAL BILIRUBIN,"120 h, time 5 day",0.2 mg/dL
same,TOTAL PROTEIN,"120 h, time 5 day",6 G/DL
same,URIC ACID,"120 h, time 5 day",3.3 mg/dL
